# Measurements from patent publication US6190848A, “Color photographic element containing ballasted triazole derivative and inhibitor releasing coupler” (priority 1999, dated 2001).
# Columns and labels:
# [1] = Bilayer photographic element: interimage (Cg/Cb+g) and relative green sensitivity
# Description: Bilayer photographic elements were prepared by coating the following layers on a cellulose triacetate film support (coverages are in g/m^2). Unless otherwise noted, all comparative and inventive compounds were dispersed in twice their own weight of N,N-dibutyllauramide:
# Layer 1 (Antihalation Layer): black colloidal elemental silver at 0.34 and gelatin at2.41.
# Layer 2 (Receiver Layer): gelatin at 2.79, CDIR-2 at 0.03, coupler M-1 (dispersed as described previously) added at 0.045, comparison material (CIEM) or IEM added at 7.2×10^-3 mmol/m^2 (this corresponds to 1.67 mmol per mole silver as AgBr or 0.96 mmol per mole of silver) dispersed in twice its own weight of N,N-dibutyllauramide and 0.81 green sensitized AgIBr tabular emulsion.
# Layer 3 (Interlayer): gelatin at 0.64, ILS-1 at 0.11 and FD-1 at 0.11.
# Layer 4 (Causer Layer): gelatin at 2.79, coupler Y-1 at 0.91, 0.79 blue sensitized AgIBr tabular emulsion and the DIR at 0.11 mmol/m^2.
# Layer 5 (Overcoat): gelatin at 2.79 and 0.02 bis-vinylsulfonemethylether.
# Samples of each element were given a stepped exposure of either green light only or blue and green light combined and processed in the KODAK FLEXICOLOR (C-41) process as described in British Journal of Photography Annual, 1988, pp196-198. Contrast of the elements was determined using the maximum slope between any two density points. In this test, the ratio of the contrast of the green only exposure to the contrast of the green of a blue and green exposure (Cg /Cb+g) is a measure of the interimage. A higher ratio means more inhibition originating from the blue and affecting the green record.
# Another set of bilayer experiments were generated in a similar manner to show the effect of IEM laydown (as mmol per mol silver) and DIR variations.
# [2] = Multilayer film: interimage (density change in receiver record) and relative green or blue sensitivity; conditions: for Interimage B → G / Relative Green Sensitivity: IDIR-2 in blue layers
# Excerpt: Comparative examples are designated ML-C; inventive examples are designated ML-I.
# Experimental Sample ML-C-0:
# Layer 1 (Antihalation layer): black colloidal silver sol at 0.140; gelatin at 2.15; OxDS-1 at 0.108, DYE-1 at 0.049; DYE-2 at 0.017 and DYE-3 at 0.014.
# Layer 2 (Slow cyan layer): a blend of three red sensitized (all with a mixture of RSD-1 and RSD-2) silver iodobromide emulsions: (i) a large sized tabular grain emulsion (1.3×0.118, 4.1 mole % I) at 0.522 (ii) a smaller tabular emulsion (0.85×0.115, 4.1 mole % I) at 0.337 and (iii) a very small tabular grain emulsion (0.55×0.115, 1.5 mole % I) at 0.559; gelatin at 2.85; cyan dye-forming coupler C-1 at 0.452; CDIR-1 at 0.043; bleach accelerator releasing coupler B-1 at 0.054 and anti-foggant 4-hydroxy-6-methyl-1,3,3a,7-tetraazaindene at 0.016.
# Layer 3 (Fast cyan layer): a red-sensitized (same as above) tabular silver iodobromide emulsion (2.2×0.128, 4.1 mole % I) at 0.086; cyan coupler C-1 at 0.081; CDIR-1 at 0.034; MC-1 at 0.043; gelatin at 1.72 and anti-foggant 4-hydroxy-6-methyl-1,3,3a,7-tetraazaindene at 0.010.
# Layer 4 (Interlayer): gelatin at 1.29.
# Layer 5 (Slow magenta layer): a blend of two green sensitized (both with a mixture of GSD-1 and GSD-2) silver iodobromide emulsions: (i) 0.54×0.091, 4.1 mole % iodide at 0.194 and (ii) 0.52×0.085, 1.5 mole % iodide at 0.559; magenta dye forming coupler M-1 at 0.24, gelatin at 1.08 and anti-foggant 4-hydroxy-6-methyl-1,3,3a,7-tetraazaindene at 0.005.
# Layer 6 (Mid magenta layer): a blend of two green sensitized (same as above) tabular silver iodobromide emulsions (i) 1.3×0.113, 4.1 mole % I at 0.430 and (ii) […], 4.1 mole % I at 0.172; magenta dye forming coupler M-1 at 0.065; MC-2 at 0.015; IDIR-5 at 0.016; gelatin at 2.12 and anti-foggant 4-hydroxy-6-methyl-1,3,3a,7-tetraazaindene at 0.003.
# Layer 7 (Fast magenta layer): a green sensitized tabular silver iodobromide (1.8×0.127, 4.1 mole % I) emulsion at 0.689; gelatin at 1.61; magenta dye forming coupler M-1 at 0.043; MC-2 at 0.054 and CDIR-2 at 0.003.
# Layer 8 (Yellow filter layer): gelatin at 0.86; Carey-Lea silver at 0.043 and OxDS-2 at 0.054.
# Layer 9 (Slow yellow layer): an equal blend of three blue sensitized (all with YSD-1) silver iodobromide emulsions (i) 0.50×0.085, 1.5 mole % I (ii) 0.60 diameter 3-D, 3% mole I and (iii) 0.68 diameter 3-D, 3 mole % I at a total of 0.430; yellow dye forming coupler Y-2 at 0.699; yellow dye forming coupler Y-3 at 0.215; IDIR-2 at 0.086; C-1 at 0.097 and gelatin at 2.066.
# Layer 10 (Fast yellow layer): two blue sensitized (with YSD-1) silver iodobromide emulsions (i) 3.1×0.137 tabular, 4.1 mole % I at 0.396 (ii) 0.95 diameter 3-D, 7.1 mole % I at 0.47; Y-2 at 0.131; Y-3 at 0.215; IDIR-2 at 0.075; C-1 at 0.011; B-1 at 0.008 and gelatin at 1.08.
# Layer 11 (Protective overcoat and UV filter layer): gelatin at 1.61; silver bromide Lippman emulsion at 0.215; UV-1 and UV-2 (1:1 ratio) at a total of 0.023 and bis(vinylsulfonyl)methane hardener at 1.6% of total gelatin weight.
# Surfactants, coating aids, emulsion addenda. sesquestrants, lubricants, matte and tinting dyes were added to the appropriate layers as is common in the art. The following describes the composition of each particular experimental coating based on ML-C-0:
# ML-C-1: Like ML-C-0, but IDIR-6 replaces IDIR-2 in layers 9 and 10 at equimolar levels.
# ML-C-2: Like ML-C-0, but IDIR-1 replaces IDIR-5 in layer 6 at 0.032.
# ML-I-0: Like ML-C-0, but IEM-A added at 3×10^-4 in layer 5, 2×10^-4 in layer 6 and 2.9×10^-4 in layer 7.
# ML-I-1: Like ML-C-0, but IEM-A added at 3×10^-3 in layer 5, 2×10^-3 in layer 6 and 2.9×10^-3 in layer 7.
# ML-I-2: Like ML-C-0, but IEM-A added at 3×10^-2 in layer 5, 2×10^-2 in layer 6 and 2.9×10^-2 in layer 7.
# ML-I-3: Like ML-C-0, but IEM-A added at 1.6×10^-3 in layers 9 and 10.
# ML-I-4: Like ML-C-1, but IEM-A added at 1.6×10^-3 in layers 9 and 10.
# ML-I-5: Like ML-C-2, but IEM-A added at 1.6×10^-3 in layers 9 and 10. […]
# [3] = Table III BL-23: laydown 0.96 mmol per mol silver, IDIR-2 in blue
# [4] = Table III BL-24: laydown 9.6 mmol per mol silver, IDIR-2 in blue
# [5] = Table III BL-26: laydown 0.96 mmol per mol silver, IDIR-6 in blue
# [6] = Table III BL-27: laydown 9.6 mmol per mol silver, IDIR-6 in blue
# [7] = Table IV ML-I-0: 0.14 mmol IEM-A/mol silver in layers 5, 6, 7
# [8] = Table IV ML-I-1: 1.4 mmol IEM-A/mol silver in layers 5, 6, 7
# [9] = Table IV ML-I-2: 14 mmol IEM-A/mol silver in layers 5, 6, 7
# [10] = Table V ML-I-3: IEM in blue layer, IDIR-2 in blue, IDIR-5 in green
# [11] = Table V ML-I-4: IEM in blue layer, IDIR-6 in blue, IDIR-5 in green
# [12] = Table V ML-I-5: IEM in blue layer, IDIR-2 in blue, IDIR-1 in green
# [13] = Table V ML-I-6: IEM in blue layer, IDIR-6 in blue, IDIR-1 in green
smiles,measurement,setting,value
CCC(C)(C)c1ccc(OCCCCNC(=O)c2ccc3[nH]nnc3c2)c(C(C)(C)CC)c1 [IEM-A],Cg /Cb+g (interimage ratio),"[1]; Table II, IDIR-2 in blue layer, IEM or CIEM at 7.2×10^-3 mmol/m^2",1.65
same,Cg /Cb+g (interimage ratio),[1]; [3],1.95
same,Relative Green Sensitivity,[1]; [3],0.95
same,Cg /Cb+g (interimage ratio),[1]; [4],1.62
same,Relative Green Sensitivity,[1]; [4],0.82
same,Cg /Cb+g (interimage ratio),[1]; [5],1.33
same,Relative Green Sensitivity,[1]; [5],0.96
same,Cg /Cb+g (interimage ratio),[1]; [6],1.59
same,Relative Green Sensitivity,[1]; [6],0.89
same,Interimage B → G,[2]; [7],-0.041
same,Relative Green Sensitivity,[2]; [7],0.99
same,Interimage B → G,[2]; [8],-0.100
same,Relative Green Sensitivity,[2]; [8],0.96
same,Interimage B → G,[2]; [9],-0.097
same,Relative Green Sensitivity,[2]; [9],0.82
same,Interimage G → B,[2]; [10],-0.154
same,Relative Blue Sensitivity,[2]; [10],0.98
same,Interimage G → B,[2]; [11],-0.155
same,Relative Blue Sensitivity,[2]; [11],0.97
same,Interimage G → B,[2]; [12],-0.202
same,Relative Blue Sensitivity,[2]; [12],0.98
same,Interimage G → B,[2]; [13],-0.243
same,Relative Blue Sensitivity,[2]; [13],0.96
